This note sets out measurements from patent US20110086759A1, “CHEMICAL COMPOUNDS” (SYNGENTA CROP PROTECTION, INC., priority 2007, published 2011).

SMILES strings stand for the structures.

Holding throughout (type): in vivo
The subject of assay [1] is Alopecurus myosuroides (ALOMY). Put plainly: Pre-emergence biological efficacy, glasshouse pot test. The note with it: 312 h, pre-emergence, rate 1,000 g/ha, evaluated after 13 days (100=total damage to plant; 0=no damage), read-out: Percentage damage caused to weed species, ALOMY. Summed up: (§1)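 Damage rated 0–100 (100 = total kill) 13 days post-spray. Pots of standard soil were sown and sprayed after one day with test compound at 1000 or 250 g/ha in acetone/water (50:50) plus 0.5% Tween 20.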

Assay [2] deals with Amaranthus retoflexus (AMARE). Described as above. The note with it: Amaranthus retroflexus, 312 h; pre-emergence, rate 1,000 g/ha, evaluated after 13 days (100=total damage to plant; 0=no damage); read-out: Percentage damage caused to weed species, AMARE. The essentials: as §1
For assay [3], the system named is Echinochloa crus-galli (ECHCG). Described as above. The note with it: 312 h, pre-emergence, rate 1,000 g/ha, evaluated after 13 days (100=total damage to plant; 0=no damage), read-out: Percentage damage caused to weed species, ECHCG. The essentials:
as §1

In assay [4] the test system is Ipomea hederaceae (IPOHE). The assay is described as above. The note with it: Ipomoea hederacea, 312 h; pre-emergence, rate 1,000 g/ha, evaluated after 13 days (100=total damage to plant; 0=no damage); read-out: Percentage damage caused to weed species, IPOHE. Summed up: as §1
Assay [5] has as its system Setaria faberi (SETFA). Described as above. To be noted: 312 h, pre-emergence, rate 1,000 g/ha, evaluated after 13 days (100=total damage to plant; 0=no damage), read-out: Percentage damage caused to weed species, SETFA. Summed up: as §1
Assay [6] concerns Solanum nigrum (SOLNI). The assay is described as above. To be noted: 312 h, pre-emergence, rate 1,000 g/ha, evaluated after 13 days (100=total damage to plant; 0=no damage), read-out: Percentage damage caused to weed species, SOLNI. The essentials: as §1
The test system of assay [7] is Alopecurus myosuroides (ALOMY). Put plainly: Post-emergence biological efficacy, glasshouse pot test. To be noted: 312 h, Rate 1,000 g/ha, post-emergence spray, evaluated after 13 days (100=total damage to plant; 0=no damage to plant), read-out: Percentage damage caused to weed species, post-emergence, ALOMY. Summed up:
(§2)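 Pot-grown weeds were sprayed 8 days after sowing with test compound in acetone/water (50:50) with 0.5% Tween 20 at 1000 or 250 g/ha. Glasshouse at 24/16° C day/night, 14 h light, 65% humidity. Damage scored 0-100 (100 = total damage) after 13 days.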

Assay [8] has as its system Amaranthus retoflexus (AMARE). The description is as above. The note with it: Amaranthus retroflexus, 312 h; Rate 1,000 g/ha; post-emergence spray; evaluated after 13 days (100=total damage to plant; 0=no damage to plant); read-out: Percentage damage caused to weed species, post-emergence, AMARE. Summed up: as §2
Assay [9] deals with Echinochloa crus-galli (ECHCG). The assay is described as above. To be noted: 312 h, Rate 1,000 g/ha, post-emergence spray, evaluated after 13 days (100=total damage to plant; 0=no damage to plant), read-out: Percentage damage caused to weed species, post-emergence, ECHCG. Summed up: as §2
Assay [10] relates to Ipomea hederaceae (IPOHE). The description is as above. To be noted: Ipomoea hederacea, 312 h; Rate 1,000 g/ha; post-emergence spray; evaluated after 13 days (100=total damage to plant; 0=no damage to plant); read-out: Percentage damage caused to weed species, post-emergence, IPOHE. Summed up: as §2
Assay [11] has as its system Setaria faberi (SETFA). The description is as above. The note with it: 312 h, Rate 1,000 g/ha, post-emergence spray, evaluated after 13 days (100=total damage to plant; 0=no damage to plant), read-out: Percentage damage caused to weed species, post-emergence, SETFA. The essentials: as §2
The subject of assay [12] is Solanum nigrum (SOLNI). The description is as above. To be noted: 312 h, Rate 1,000 g/ha, post-emergence spray, evaluated after 13 days (100=total damage to plant; 0=no damage to plant), read-out: Percentage damage caused to weed species, post-emergence, SOLNI. The essentials:
as §2

Regarding `COC(=O)c1nc(-c2cc(F)c(F)cc2F)nc(NCc2ccco2)c1Cl` [Compound 241-48, 5-Chloro-4-(furan-2-ylmethylamino)-6-methoxycarbony-2-(2,4,5-trifluoro-phenyl)pyrimidine], the pest or weed control at 1000 g/ha in assay [1] was 0%; in [2], 80%; in assay [3], 0%; in [4], 10%; in the assay on Setaria faberi (SETFA) [5], 0%; with Solanum nigrum (SOLNI) [6] it was 0%. In addition, the pest or weed control at 1000 g/ha was 10% in [7]; 80% in assay [8]; 0% in assay [9]; 60% in [10]; 10% in the assay with Setaria faberi (SETFA) [11]; 50% in the assay on Solanum nigrum (SOLNI) [12].

`COC(=O)c1nc(-c2ccc(F)cc2)nc(NCc2ccco2)c1Cl` [Compound 242-48, 5-Chloro-2-(4-fluorophenyl)-4-(furan-2-yl-methyl-amino)-6-methoxy-carbonylpyrimidine]: the pest or weed control at 1000 g/ha in assay [1] was 10%; in [2] it was 100%; in assay [3], 0%; in [4], 20%; in the assay with Setaria faberi (SETFA) [5] it was 0%; with Solanum nigrum (SOLNI) [6] it was 20%. The pest or weed control at 1000 g/ha in assay [7] was determined as 20%; in assay [8], 100%; in assay [9] it was 20%; in assay [10] it was 60%; with Setaria faberi (SETFA) [11], 20%; in the assay on Solanum nigrum (SOLNI) [12], 50%.

Regarding `COC(=O)c1nc(-c2ccc(F)c(OC)c2)nc(NCc2ccco2)c1Cl` [Compound 243-48, 5-Chloro-2-(4-fluoro-3-methoxyphenyl)-4-(furan-2-yl-methyl-amino)-6-methoxy-carbonylpyrimidine], the pest or weed control at 1000 g/ha in assay [1] amounted to 10%; in [2] it was 60%; in [3], 0%; in assay [4], 0%; in the assay on Setaria faberi (SETFA) [5] it was 40%; in the assay on Solanum nigrum (SOLNI) [6], 10%. For the same compound, the pest or weed control at 1000 g/ha is 10% in [7]; 100% in assay [8]; 40% in assay [9]; 10% in [10]; 60% in the assay with Setaria faberi (SETFA) [11]; 60% with Solanum nigrum (SOLNI) [12].

As to `COC(=O)c1nc(-c2ccc(F)c(C(F)(F)F)c2)nc(NCc2ccco2)c1Cl` [Compound 244-48, 5-Chloro-2-(4-fluoro-3-trifluoromethyl-phenyl)-4-(furan-2-ylmethylamino)-6-methoxycarbonyl-pyrimidine], the pest or weed control at 1000 g/ha is 30% in [1]; 10% in assay [2]; 20% in assay [3]; 0% in [4]; 60% with Setaria faberi (SETFA) [5]; 30% in the assay on Solanum nigrum (SOLNI) [6]. In addition, the pest or weed control at 1000 g/ha in assay [7] was determined as 30%; in assay [8], 50%; in assay [9] it was 60%; in assay [10] it was 30%; with Setaria faberi (SETFA) [11], 80%; in the assay on Solanum nigrum (SOLNI) [12] it was 80%.

With `COC(=O)c1nc(-c2ccc(F)c(Cl)c2)nc(NCc2ccco2)c1Cl` [Compound 245-48, 5-Chloro-2-(3-chloro-4-fluorophenyl)-4-(furan-2-yl-methyl-amino)-6-methoxy-carbonylpyrimidine], the pest or weed control at 1000 g/ha worked out at 30% in assay [1]; 80% in assay [2]; 30% in [3]; 20% in assay [4]; 30% in the assay with Setaria faberi (SETFA) [5]; 10% in the assay with Solanum nigrum (SOLNI) [6]. In addition, the pest or weed control at 1000 g/ha in [7] was 20%; in assay [8], 100%; in assay [9], 40%; in [10], 60%; with Setaria faberi (SETFA) [11], 70%; in the assay on Solanum nigrum (SOLNI) [12] it was 90%.

For `COC(=O)c1nc(-c2ccc(F)c(F)c2F)nc(NCc2ccco2)c1Cl` [Compound 247-48, 5-Chloro-4-(furan-2-ylmethylamino)-6-methoxycarbonyl-2-(2,3,4-trifluoro-phenyl)pyrimidine], the pest or weed control at 1000 g/ha in assay [1] came out at 10%; in [2], 90%; in assay [3], 10%; in assay [4], 40%; in the assay with Setaria faberi (SETFA) [5], 20%; in the assay with Solanum nigrum (SOLNI) [6], 40%. Also, the pest or weed control at 1000 g/ha was found to be 30% in assay [7]; 100% in [8]; 60% in assay [9]; 60% in assay [10]; 40% in the assay with Setaria faberi (SETFA) [11]; 90% with Solanum nigrum (SOLNI) [12].

As for `COC(=O)c1nc(-c2ccc(OC(F)(F)F)cc2)nc(NCc2ccco2)c1Cl` [Compound 248-48, 5-Chloro-4-(furan-2-ylmethylamino)-6-methoxycarbonyl-2-(4-trifluoromethoxy-phenyl)pyrimidine], the pest or weed control at 1000 g/ha in [1] was 0%; in assay [2], 60%; in [3] it was 0%; in [4] it was 0%; with Setaria faberi (SETFA) [5], 0%; with Solanum nigrum (SOLNI) [6], 20%. Besides, the pest or weed control at 1000 g/ha in assay [7] is 0%; in assay [8] it was 70%; in assay [9], 40%; in assay [10] it was 50%; with Setaria faberi (SETFA) [11], 0%; in the assay with Solanum nigrum (SOLNI) [12] it was 70%.

For the compound `COC(=O)c1nc(-c2cccc(OC)c2F)nc(NCc2ccco2)c1Cl` [Compound 249-48, 5-Chloro-2-(2-fluoro-3-methoxyphenyl)-4-(furan-2-ylmethyl-amino)-6-methoxy-carbonylpyrimidine], the pest or weed control at 1000 g/ha in [1] came out at 0%; in assay [2], 70%; in [3], 0%; in assay [4], 20%; in the assay with Setaria faberi (SETFA) [5] it was 20%; in the assay on Solanum nigrum (SOLNI) [6], 30%. Moreover, the pest or weed control at 1000 g/ha turned out to be 0% in assay [7]; 70% in [8]; 0% in [9]; 30% in [10]; 0% with Setaria faberi (SETFA) [11]; 70% with Solanum nigrum (SOLNI) [12].
